Measurements as given in PMC11693508, “Pharmacokinetics, bioavailability, and tissue distribution of MRTX1133 in rats using UHPLC-MS/MS” (Frontiers in Pharmacology, 2024).
Where two headings read alike, the source gives them in different places.

Columns and labels:
[1] = system: tumor models, including pancreatic and colorectal cancer; design: method as in Kataoka et al., 2023; Drosten and Barbacid, 2022; details: multiple in vivo tumor models, ref Kataoka et al., 2023, Drosten and Barbacid, 2022; cited from earlier work
[2] = Tissue distribution in rats after single intravenous administration; format: in vivo, Sprague-Dawley rats; details: rat, intravenous 5 mg/kg; for concentration at 2 h: after 2 h; for concentration at 6 h: after 6 h
Protocol: (§1) The distribution of MRTX1133 in the tissues was performed using 25 rats with a single intravenous administration of MRTX1133 at 5 mg kg^-1. The blood samples were collected from abdominal aorta at 0.5 h, 1 h, 2 h, 6 h, and 24 h (five rats at each time point), then the organs such as the heart, liver, spleen, lung, kidney, intestine, and pancreas were immediately collected. The organs were washed with cold physiological saline (4°C), they were weighed and homogenized in cold saline solution (1:3, w/v). The homogenized samples were treated according to the method described in the sample preparation section. The excretion of MRTX1133 in the urine was also investigated by placing the rats in metabolic cages after intravenous administration of MRTX1133 at 5 mg kg^-1 (one rat in each cage), the urine and feces were collected at 2 h, 6 h and 24 h after administration (five rats at each time point), and the content of MRTX1133 in urine and feces was detected by the LC-MS method.

[3] = design: method as in Wang et al. (2022); details: CD-1 mice, intraperitoneal 30 mg/kg, ref Wang et al. (2022), cited from earlier work
[4] = Excretion in urine and feces of rats after intravenous administration; format: in vivo, Sprague-Dawley rats; details: rat, intravenous 5 mg/kg; for excretion through the kidney as prototype drug (urine): mean ± SD, n = 5
Protocol: as §1

KRAS (G12D) = system: KRAS (G12D); design: method as in Wang et al., 2022; details: in vitro in cell culture; ref Wang et al., 2022; cited from earlier work
[5] = Pharmacokinetic study in rats after intragastric and intravenous administration (plasma, UHPLC-MS/MS); format: in vivo, Sprague-Dawley rats; details: for Tmax: po, 25 mg/kg; for AUC(0-t): n = 10; for MRT last: read-out: MRT(0-t)
Protocol: The pharmacokinetic study was performed using oral solutions of MRTX1133 in 5% carboxymethyl-cellulose sodium (CMC-Na) at a concentration of 2.5 mg mL^-1 (the dose was 25 mg kg^-1 and 10 mL kg^-1). The intravenous solution was prepared at a concentration of 5 mg mL^-1 in polyethylene glycol 400 and dimethyl sulfoxide (8%). Twenty rats were randomly divided into two groups (ten rats each group), the rats in one group were given MRTX1133 by intravenous administration at 5 mg kg^-1 and the other group by intragastric administration at 25 mg kg^-1. Rats were slightly anesthetized with diethyl ether, blood samples were collected (approximately 150 µL) from the suborbital vein, and placed into heparinized tubes at 0.17 h, 0.33 h, 0.5h, 0.75 h, 1 h, 1.5 h, 2 h, 3 h, 4 h, 6 h, 8 h, 10 h, and 24 h after treatment. The rats were treated with saline at the same volume by gavage and used as control. Blood samples were centrifuged at 20,800 g for 10 min (at 4°C) and stored at - 80°C.
The DAS 3.2 software package (edited by the Chinese Mathematical Pharmacology Society) was used for the pharmacokinetic data analysis and the non-compartmental model was applied. The oral bioavailability (F) of MRTX1133 was measured by comparing each area under the curve (AUC) 0-t value after intragastric (i.g.) and intravenous (i.v.) administration according to the equation: F = (AUC i. g./Dose i. g.)/(AUC i. v./Dose i. v.).

[6] = Sprague-Dawley, rat plasma, intravenous 5 mg/kg
[7] = Sprague-Dawley, rat plasma, oral 25 mg/kg

C#Cc1c(F)ccc2cc(O)cc(-c3ncc4c(N5CC6CCC(C5)N6)nc(OC[C@@]56CCCN5C[C@H](F)C6)nc4c3F)c12 [MRTX1133]
antitumor effect in vivo [1]: induces tumor regression
concentration at 2 h ([2]; Sprague-Dawley, heart, n = 5, read-out: highest concentration in heart): 879 ± 450 ng/g
concentration at 2 h ([2]; Sprague-Dawley, kidney, n = 5, read-out: highest concentration in kidney): 2580 ng/g
concentration at 1 h ([2]; Sprague-Dawley, liver, at 1 h, n = 5, read-out: highest concentration in liver): 5360 ng/g
concentration at 2 h ([2]; Sprague-Dawley, lung, n = 5, read-out: highest concentration in lung): 1230 ng/g
concentration at 6 h ([2]; Sprague-Dawley, pancreas, n = 5, read-out: highest concentration in pancreas): 156 ± 34.2 ng/g
concentration at 6 h ([2]; Sprague-Dawley, spleen, n = 5, read-out: highest concentration in spleen): 1860 ± 224 ng/g
detection in testis [2]: no MRTX1133
concentration in liver, spleen, kidney and lung compared with plasma ([2]; 2 h after administration): higher than the concentration of the drug in plasma
detection in organs at 24 h ([2]; liver, kidney, lung, spleen, heart, pancreas (except intestine), 24 h): still detectable
tissue distribution ([2]; liver, kidney, lung, spleen, heart, pancreas, intestine): widely distributed
plasma concentration ([3]; 4 h): ~1,000 ng mL^-1
plasma concentration ([3]; 8 h): ~100 ng/mL
plasma concentration ([3]; 24 h): approximately 50 ng mL^-1
Cmax ([3]; at 1 h): approximately 7,000 ng mL^-1
excretion through the kidney as prototype drug (urine) ([4]; 6 h): 10.43% ± 2.89%
excretion through the kidney as prototype drug (urine), range ([4]; 6 h): 6.53%–13.54%
excretion through the kidney as prototype drug (urine) ([4]; 24 h, 5 mg/kg): 22.59% ± 3.22%
excretion through the kidney as prototype drug (urine), range ([4]; 24 h): 17.60%–25.92%
MRTX1133 in feces ([4]; feces 24 h): no MRTX1133 was found
potency (KRAS (G12D)): single digit nanomolar
selectivity for KRAS (G12D) compared with wild-type KRAS (KRAS (G12D)): more than 1000 fold
bioavailability ([5]; Sprague-Dawley, plasma, oral, rat, AUC(0-t) i.g. 25 mg/kg vs i.v. 5 mg/kg, read-out: F (oral bioavailability)): 2.92%
CL/F ([5]; Sprague-Dawley, plasma, rat, oral 25 mg/kg, read-out: CL/F (converted)): 199 L/h/kg
Tmax ([5]; Sprague-Dawley, rat, plasma, rat plasma, oral 25 mg/kg, read-out: Tmax): 0.6 ± 0.13 h
Tmax ([5]; Sprague-Dawley, rat, plasma, rat plasma, oral 25 mg/kg, read-out: time of peak plasma concentration (converted)): 0.75 h
half-life [5, 6]: 2.88 ± 1.08 h
AUC(0-t) [5, 6]: 928 ± 192 ng·h/mL
MRT last [5, 6]: 1.34 ± 0.6 h
Cmax [5, 7]: 130 ± 25.2 ng/mL
half-life [5, 7]: 1.12 ± 0.46 h
MRT last [5, 7]: 1.25 ± 0.18 h
AUC(0-t) ([5]; Sprague-Dawley, rat plasma, oral (intragastric) 25 mg/kg): 136 ± 46.5 ng·h/mL
plasma concentration 8 h after intravenous administration ([5]; rat plasma, intravenous 5 mg/kg, 8 h): bleow the limit of quantitation
plasma concentration 6 h after oral administration ([5]; rat plasma, oral 25 mg/kg, 6 h): bleow the limit of quantitation
CL/F ([5]; rat, intravenous 5 mg/kg): 5.14 ± 1.58 L/h/kg
V/F ([5]; rat, intravenous 5 mg/kg): 22.83 ± 11.67 L/kg
V/F ([5]; rat, oral 25 mg/kg): 318.99 ± 157.43 L/kg
